Patent US11708348B2, “Protease inhibitors for treatment of coronavirus infections” (The Scripps Research Institute, priority 2021, dated 2023)

The compounds below were run on SARS-CoV-2 strain USA-WA1/2020 (assay: microbe, parasite or virus in culture). Details: Severe acute respiratory syndrome coronavirus 2, HeLa-ACE2, 24 h, HeLa-ACE2 cells, SARS-CoV-2 infection, 24 h; bound printed in cell; read-out: EC50, uM (Hela).
Assay type: cell-based

| Compound | EC50 [µM] |
| --- | --- |
| CC[C@@H](O)C(=O)N[C@@H](CC1(C)CC1)C(=O)N[C@@H](C[C@@H]1CCNC1=O)C(=O)COC(F)(F)F [Compound 376, (R)-2-hydroxy-N-((S)-3-(1-methylcyclopropyl)-1-oxo-1-(((S)-3-oxo-l-((S)-2-oxopyrrolidin-3-yl)-4-(trifluoromethoxy)butan-2-yl)amino)propan-2-yl)butanamide] | > 1 |

Same assay, conditions: Severe acute respiratory syndrome coronavirus 2, HeLa-ACE2, 24 h, HeLa-ACE2 cells, SARS-CoV-2 infection, 24 h; class symbols; read-out: EC50, uM (Hela)

| Compound | EC50 [µM] |
| --- | --- |
| CC(C)C[C@H](NC(=O)c1cn2ncccc2n1)C(=O)N[C@@H](C[C@@H]1CCNC1=O)C(=O)COC(F)(F)F [Compound 203, N-((S)-4-methyl-1-oxo-1-(((S)-3-oxo-1-((S)-2-oxopyrrolidin-3-yl)-4-(trifluoromethoxy)butan-2-yl)amino)pentan-2-yl)imidazo[1,2-b]pyridazine-2-carboxamide] | 0.05 to 0.2 |
| CC(C)C[C@H](NC(=O)C(=O)Nc1ccccc1)C(=O)N[C@@H](C[C@@H]1CCNC1=O)C(=O)COc1c(F)c(F)cc(F)c1F [Compound 10, N1-((S)-4-methyl-1-oxo-1-(((S)-3-oxo-1-((S)-2-oxopyrrolidin-3-yl)-4-(2,3,5,6-tetrafluorophenoxy)butan-2-yl)amino)pentan-2-yl)-N2-phenyloxalamide] | < 0.05 |
| CC[C@@H](O)C(=O)N1CC2(CC2)C[C@H]1C(=O)N[C@@H](C[C@@H]1CCNC1=O)C(=O)COC(F)(F)F [Compound 371, (S)-5-((R)-2-hydroxybutanoyl)-N-((S)-3-oxo-1-((S)-2-oxopyrrolidin-3-yl)-4-(trifluoromethoxy)butan-2-yl)-5-azaspiro[2.4]heptane-6-carboxamide] | 0.05 to 0.2 |
| CC(C)(O)C(=O)N1CC2(CC2)C[C@H]1C(=O)N[C@@H](C[C@@H]1CCNC1=O)C(=O)COC(F)(F)F [Compound 354, (S)-5-(2-hydroxy-2-methylpropanoyl)-N-((S)-3-oxo-1-((S)-2-oxopyrrolidin-3-yl)-4-(trifluoromethoxy)butan-2-yl)-5-azaspiro[2.4]-heptane-6-carboxamide] | 0.05 to 0.2 |
| CC(C)C[C@H](NC(=O)C(=O)Nc1ccc(F)cc1F)C(=O)N[C@@H](C[C@@H]1CCNC1=O)C(=O)COc1c(F)c(F)cc(F)c1F [Compound 78, N1-(2,4-difluorophenyl)-N2-((S)-4-methyl-1-oxo-1-(((S)-3-oxo-1-((S)-2-oxopyrrolidin-3-yl)-4-(2,3,5,6-tetrafluorophenoxy)butan-2-yl)amino)pentan-2-yl)oxalamide] | < 0.05 |
| C[C@@](O)(C(=O)N1CC2(CC2)C[C@H]1C(=O)N[C@@H](C[C@@H]1CCNC1=O)C(=O)COC(F)(F)F)c1ccccc1 [Compound 364, (S)-5-((S)-2-hydroxy-2-phenylpropanoyl)-N-((S)-3-oxo-1-((S)-2-oxopyrrolidin-3-yl)-4-(trifluoromethoxy)butan-2-yl)-5-azaspiro[2.4]-heptane-6-carboxamide] | < 0.05 |
| O=C(N[C@@H](C[C@@H]1CCNC1=O)C(=O)COC(F)(F)F)C(CC1CCOCC1)NC(=O)[C@H]1CCCO1 (stereo partly drawn) [Compound 298, (2R)-N-(1-oxo-1-(((S)-3-oxo-1-((S)-2-oxopyrrolidin-3-yl)-4-(trifluoromethoxy)butan-2-yl)amino)-3-(tetrahydro-2H-pyran-4-yl)propan-2-yl)tetrahydrofuran-2-carboxamide] | 0.5 to 1 |
| CC[C@@H](O)C(=O)N[C@H](CC1(C)CC1)C(=O)N[C@@H](C[C@@H]1CCNC1=O)C(=O)COC(F)(F)F [Compound 375, (R)-2-hydroxy-N-((R)-3-(l-methylcyclopropyl)-1-oxo-1-(((S)-3-oxo-l-((S)-2-oxopyrrolidin-3-yl)-4-(trifluoromethoxy)butan-2-yl)amino)propan-2-yl)butanamide] | 0.05 to 0.2 |

Same assay, conditions: Severe acute respiratory syndrome coronavirus 2, HeLa-ACE2, 24 h, HeLa-ACE2 cells, SARS-CoV-2 infection, 24 h; read-out: EC50, uM (Hela)

| Compound | EC50 [µM] |
| --- | --- |
| O=C1NCC[C@H]1C[C@H](NC(=O)[C@@H]1CC2(CC2)CN1C(=O)CCNS(=O)(=O)Nc1ccccc1)C(=O)COC(F)(F)F [Compound 670, (S)-N-((S)-3-oxo-1-((S)-2-oxopyrrolidin-3-yl)-4-(trifluoromethoxy)butan-2-yl)-5-(3-((N-phenylsulfamoyl)amino)propanoyl)-5-azaspiro[2.4]heptane-6-carboxamide] | 0.2 to 0.5 |
| O=C1NCC[C@H]1C[C@H](NC(=O)[C@@H]1CC2(CC2)CN1C(=O)[C@@H](O)c1ccccc1)C(=O)COC(F)(F)F [Compound 415, (S)-5-((S)-2-hydroxy-2-phenylacetyl)-N-((S)-3-oxo-1-((S)-2-oxopyrrolidin-3-yl)-4-(trifluoromethoxy)butan-2-yl)-5-azaspiro[2.4]heptane-6-carboxamide] | 0.05 to 0.2 |
| O=C(Nc1ccccc1F)C(=O)N1[C@H](C(=O)N[C@@H](C[C@@H]2CCNC2=O)C(=O)COC(F)(F)F)C[C@@H]2C[C@@H]21 [Compound 539, (1S,3S,5S)-2-(2-((2-fluorophenyl)amino)-2-oxoacetyl)-N-((S)-3-oxo-1-((S)-2-oxopyrrolidin-3-yl)-4-(trifluoromethoxy)butan-2-yl)-2-azabicyclo-[3.1.0]hexane-3-carboxamide] | 0.05 to 0.2 |
| Cc1ccccc1NC(=O)C(=O)N[C@@H](CC(C)(C)C)C(=O)N[C@@H](C[C@@H]1CCNC1=O)C(=O)COC(F)(F)F [Compound 504, N1-((S)-4,4-dimethyl-1-oxo-1-(((S)-3-oxo-1-((S)-2-oxopyrrolidin-3-yl)-4-(trifluoromethoxy)butan-2-yl)amino)pentan-2-yl)-N2-(o-tolyl)oxalamide] | < 0.05 |
| CC(C)C[C@@H](O)C(=O)N1C[C@@H](CC2CCC2)C[C@H]1C(=O)N[C@@H](C[C@@H]1CCNC1=O)C(=O)COC(F)(F)F [Compound 772, (2S,4S)-4-(cyclobutylmethyl)-1-((R)-2-hydroxy-4-methylpentanoyl)-N-((S)-3-oxo-1-((S)-2-oxopyrrolidin-3-yl)-4-(trifluoromethoxy)butan-2-yl)pyrrolidine-2-carboxamide] | < 0.05 |
| CC(C)C[C@H](NS(=O)(=O)c1ccc2c(ccn2C)c1)C(=O)N[C@@H](C[C@@H]1CCNC1=O)C(=O)COc1c(F)c(F)cc(F)c1F [Compound 765, (S)-4-methyl-2-((l-methyl-1H-indole)-5-sulfonamido)-N-((S)-3-oxo-1-((S)-2-oxopyrrolidin-3-yl)-4-(2,3,5,6-tetrafluorophenoxy)butan-2-yl)pentanamide] | < 0.05 |
| O=C1NCC[C@H]1C[C@H](NC(=O)[C@@H]1CC2(CC2)CN1C(=O)c1ccccc1)C(=O)COC(F)(F)F [Compound 694, (S)-5-benzoyl-N-((S)-3-oxo-1-((S)-2-oxopyrrolidin-3-yl)-4-(trifluoromethoxy)butan-2-yl)-5-azaspiro[2.4]heptane-6-carboxamide] | 0.05 to 0.2 |
| CC(C)(F)c1cc(C(=O)NC(CC2CCOCC2)C(=O)N[C@@H](C[C@@H]2CCNC2=O)C(=O)COC(F)(F)F)no1 (stereo partly drawn) [Compound 499, 5-(2-fluoropropan-2-yl)-N-(l-oxo-1-(((S)-3-oxo-1-((S)-2-oxopyrrolidin-3-yl)-4-(trifluoromethoxy)butan-2-yl)amino)-3-(tetrahydro-2H-pyran-4-yl)propan-2-yl)isoxazole-3-carboxamide] | 0.05 to 0.2 |
| O=C1NCC[C@H]1C[C@@H](NC(=O)[C@@H]1[C@H]2CCC[C@H]2CN1C(=O)c1cc2cc(F)ccc2[nH]1)C(=O)COC(F)(F)F [Compound 604, (1S,3aR,6aS)-2-(5-fluoro-1H-indole-2-carbonyl)-N-((R)-3-oxo-1-((S)-2-oxopyrrolidin-3-yl)-4-(trifluoromethoxy)butan-2-yl)octahydrocyclopenta[c]pyrrole-1-carboxamide] | < 0.05 |
| CC(C)(O)CCC(=O)N1CC2(CC2)C[C@H]1C(=O)N[C@@H](C[C@@H]1CCNC1=O)C(=O)COC(F)(F)F [Compound 430, (S)-5-(4-hydroxy-4-methylpentanoyl)-N-((S)-3-oxo-1-((S)-2-oxopyrrolidin-3-yl)-4-(trifluoromethoxy)butan-2-yl)-5-azaspiro[2.4]heptane-6-carboxamide] | 0.2 to 0.5 |
| O=C1NCC[C@H]1C[C@H](NC(=O)[C@@H]1CC2(CC2)CN1C(=O)C1(O)CC1)C(=O)COC(F)(F)F [Compound 420, (S)-5-(l-hydroxycyclopropane-1-carbonyl)-N-((S)-3-oxo-1-((S)-2-oxopyrrolidin-3-yl)-4-(trifluoromethoxy)butan-2-yl)-5-azaspiro[2.4]heptane-6-carboxamide] | 0.05 to 0.2 |
| CC(C)(NC(=O)C(=O)N1C[C@@H]2CCC[C@@H]2[C@H]1C(=O)N[C@@H](C[C@@H]1CCNC1=O)C(=O)COC(F)(F)F)C(F)F [Compound 554, (1S,3aR,6aS)-2-(2-((1,1-difluoro-2-methylpropan-2-yl)amino)-2-oxoacetyl)-N-((S)-3-oxo-1-((S)-2-oxopyrrolidin-3-yl)-4-(trifluoromethoxy)butan-2-yl)octahydro-cyclopenta[c]pyrrole-1-carboxamide] | 0.05 to 0.2 |
| Cc1ccccc1NC(=O)C(=O)NC(CC1CCOCC1)C(=O)N[C@@H](C[C@@H]1CCNC1=O)C(=O)COC(F)(F)F (stereo partly drawn) [Compound 524, N1-(1-oxo-1-(((S)-3-oxo-1-((S)-2-oxopyrrolidin-3-yl)-4-(trifluoromethoxy)butan-2-yl)amino)-3-(tetrahydro-2H-pyran-4-yl)propan-2-yl)-N2-(o-tolyl)oxalamide] | < 0.05 |
| [2H]C([2H])([2H])C([2H])([2H])C([2H])([2H])C(=O)N1CC2(CC2)C[C@H]1C(=O)N[C@@H](C[C@@H]1CCNC1=O)C(=O)COC(F)(F)F [Compound 736, (S)-5-(butanoyl-d7)-N-((S)-3-oxo-1-((S)-2-oxopyrrolidin-3-yl)-4-(trifluoromethoxy)butan-2-yl)-5-azaspiro[2.4]heptane-6-carboxamide] | < 0.05 |
| CNS(=O)(=O)NCC(=O)N1CC2(CC2)C[C@H]1C(=O)N[C@@H](C[C@@H]1CCNC1=O)C(=O)COC(F)(F)F [Compound 691, (S)-5-((N-methylsulfamoyl)glycyl)-N-((S)-3-oxo-1-((S)-2-oxopyrrolidin-3-yl)-4-(trifluoromethoxy)butan-2-yl)-5-azaspiro[2.4]heptane-6-carboxamide] | 0.5 to 1 |
